Patent US11299518B2, “Fusion respiratory syncytial virus inhibitors and use thereof” (priority 2016, dated 2022)
Like-named read-outs stand apart in the source and are kept apart here. Bridge positions count the residues as written; N and C are the ends. Square brackets hold non-standard residues; d marks the D form. Peptide text beside a SMILES is read from it. R8 = C=CCCCCCC[C@@](C)(N)C(=O)O; R5 = C=CCCC[C@@](C)(N)C(=O)O; S5 = C=CCCC[C@](C)(N)C(=O)O

Legend:
[1] = tested on: RSV; details: DeVincenzo et al., 2014; cited from earlier work
[2] = CD spectroscopy, percentage of helicity; type: physicochemical; details: CD at 222 nm, 10 mM phosphate buffer pH 7.5, 50 μM peptide, 25° C.
Experimental: The secondary structure of the peptides was then characterized by circular dichroism (DC) as described below.
The circular dichroism spectra were acquired on a Jasco J-810 and on a Chirascan spectropolarimeter. The samples were prepared in 10 mM phosphate buffer, pH 7.5, at a peptide concentration of 50 μM. Data were recorded at 25° C. by stepscan from 180 nm to 260 nm in a 0.1 cm pathlength quartz cell using 0.2 nm wavelength increments, 1 nm bandwidth and a response time of 0.5 sec. Each spectrum was an average of three measurements and was subtracted from buffer baseline. The data were converted to per residue molar ellipticity units [θ] (deg·cm2·dmol−1·residue−1) and smoothed using the Igor software. The percentage of helicity was calculated as it follows:
[formula] whereby CD222=molar ellipticity at 222 nm in [mdeg], N=number of amino acids in the peptide and C=peptide molar concentration [mol/l].

[3] = tested on: RSV-mCherry; type: cell-based, HRSV
Experimental: The inhibitory activity of the peptides of the invention was assessed in HEp-2 cells as described below:
A mCherry-expressing virus recently developed (Rameix-Welti et al., 2014, Nat. Commun., 5:5104) was used to avoid the cumbersome manipulations required with the GFP-expressing virus.
HEp-2 cells were seeded at 5×10^4 cells per well in 96 wells plate the day before the infection. Peptides were 2-fold serially diluted in DMSO (11 dilutions), then further diluted in MEM medium and pre-incubated for 15-20 minutes with 0.2 MOI of RSV-mCherry (Rameix-Welti et al., 2014, supra). Following the washing of Hep-2 cells with MEM without phenol red medium, the cells were incubated with the virus/peptide mixtures for a period of 1 h30-2 h. The cells were washed and further incubated in MEM media containing fetal bovine serum and the same concentration of peptide that was used during the infection step. Plates were incubated 48 h at 37° C. and the mCherry fluorescence was measured using a spectrofluorometer (Tecan infinite M200PRO) with excitation and emission wavelengths of 580 and 620 nm, respectively (expressed in relative fluorescence units RFU). Non-infected HEp-2 cells were used as standards for fluorescence background levels. Each experiment was performed in duplicate and repeated at least twice.

[4] = tested on: 5HB, a recombinant 5 helix bundle protein containing 3 HR1 domains covalently attached to 2 HR2 domains; details: 50 nM 5HB, 2 nM FITC-T108
Experimental: The fluorescence polarization assay was performed in 384-well plates using a Spectramax Paradigm (Molecular devices), using an excitation and emission wavelength of 485 nm and 535 nm, respectively. The acquisition time was of 700 ms and the read height was of 1 mm.

[5] = tested on: recombinant green fluorescent protein (GFP)-expressing RSV virus (strain A2); assay: HRSV-eGFP inhibition assay (cellular viral fusion assay, A549 cells, flow cytometry); type: cell-based
Experimental: The inhibitory activity of the peptides of the invention was assessed in a cellular viral fusion assay as compared to comparative peptides as follows. A549 cells were infected with a recombinant green fluorescent protein (GFP)-expressing RSV virus (strain A2) obtained as described below and in Hallak et al., 2000, Virology, 271:264-275, and the inhibitory activity of the peptides was quantified by flow cytometry.
Following rapid thawing of the frozen eGFP encoding RSV virus at […], the virus was vortexed for 2 min, and pipetted up and down to break aggregates. Serial 4-fold dilutions of inhibitors were prepared in glass tubes and mixed with a volume of virus required to achieve approximately 50% of infection in 200 μl of media containing 2% of FCS. The resulting mixture was added to 24-well plates containing A549 cells. Cells were incubated for 2 hours at 37° C., the media was replaced, and cells were incubated for an additional 24 hours. Cells were treated with 300 μl of trypsin for 10 min at 37° C., and the detached cells were diluted in 1 ml of culture medium. Following centrifugation at 1′700 rpm, the pellet was resuspended in 300 μl of PBS+1% SBF (V/V) and GFP positive cells were counted by FACS analysis.

[6] = target: T1, chymotrypsin (Bos taurus, UniProt P00766); assay: Proteolytic stability assay, chymotrypsin; type: in vitro ADME; details: chymotrypsin (isolated protease), pH 8, b240; read-out: half-life against chymotrypsin (converted)
T1 construct: purchased Thermo Fisher Scientific
Experimental: (§1) The compounds according to the invention are tested for their stability in a proteolytic stability assay as described below which is an important parameter to assess for the development of peptide therapeutics. Peptides of the invention 4bb, 4ca, 4a and their unstapled comparative peptide 4, as well as both SAH-RSVFBD isomers were treated with chymotrypsin and trypsin, and analysed by LC/MS to quantify the reaction products over time.
(§2) In vitro proteolytic degradation was measured via LC-MS using an Agilent Infinity 1280 UHPLC system coupled to an Agilent quadruple-time-of-flight (QTOF) 6530 with an Agilent Jet Stream electrospray ionisation (AJS ESI) source (all Agilent Technologies, Waldbronn, Germany). 5 μl of digested sample were injected onto a C18 column (Zorbax Eclipse Plus RRHD, 1.8 μm, 2.1*100 mm, Agilent Technologies, Waldbronn, Germany) equilibrated with solvent A and eluted with a flow rate of 0.4 ml/min over a 5-95% gradient of solvent B in 5 minutes, followed by 1.5 minutes at 95% and 0.5 minutes post-time where solvent A was 95% water, 5% acetonitrile with 0.2% formic acid and solvent B was 5% water, 95% acetonitrile with 0.2% formic acid. The AJS ESI source was operated with a capillary voltage of 4000V and a nozzle voltage of 600V with a drying gas temperature of 325° C. and flow rate of 10 l/min, nebulising gas pressure of 20 psi, and a sheath gas temperature of 300° C. and flow rate of 11l/min. Mass spectra were acquired in the positive ion mode from 100-3200 m/z at a rate of 1 scan per second in extended dynamic range (2 GHz) mode. The fragmentor, skimmer and octopole Radio Frequency voltages were set to 200, 60 and 750 V respectively. Data were acquired and analysed with Agilent MassHunter Workstation (version B.05).
(§3) Peptide digestion was performed as it follows: 10 μl of peptide at 0.29 mM in 50/50 acetonitrile/water were dissolved in 990 μl 100 mM Tris-HCl, pH 8.0 with 10 mM CaCl2. Following measurement of the undigested (to) sample, 10 μl of chymotrypsin at 50 μg/ml in 100 mM Tris-HCl, pH 8.0 with 10 mM CaCl2 were added and the sample was vortexed and placed immediately in the autosampler, set to 25° C. Trypsin digestion was performed as with chymotrypsin except that the buffer was in 50 mM Tris-HCl, pH8. Chymotrypsin and trypsin were purchased from Thermo Fisher Scientific.
(§4) The level of intact peptide was quantified by serial injection over time. Integration of the intact peptide compound chromatogram was performed using the Agilent Molecular Feature Extraction (MFE) algorithm. A plot of the intact peptide MFE peak area over time gave an exponential decay curve, from which the half-life was determined using MatLab […].

[7] = tested on: trypsin; assay: Proteolytic stability assay, trypsin; type: in vitro ADME; details: trypsin (isolated protease), pH 8, b240; read-out: half-life against trypsin (converted)
Experimental: as §1, §2, §3, §4

[8] = tested on: rHRSV-Luc; assay: In vivo rHRSV-Luc infection of mice, lung histological analysis; parameters: species or system BALB/c mice; details: intranasal peptide, day 7 pi
Experimental: The efficacy of peptides of the invention is tested in the following model of rHRSV infection.
Female BALB/c mice around 8 weeks of age are purchased. Mice are bred in a pathogen-free animal facility. For infection experiments, mice will be housed in cages inside stainless steel isolation cabinets that are ventilated under negative pressure with high-efficiency particulate air-filtered air. Female BALB/c mice (n=5 per group) are anesthetized by a mixture of ketamine and xylazine (1 and 0.2 mg per mouse, respectively) and infected by intranasal inoculation with 50 μl of PBS containing 6.10^4 p.f.u. of rHRSV-Luc (Luc-encoding virus that enables direct visualization of RSV replication in living mice). Peptides of the invention are administered intranasally to the mice infected or uninfected with RSV-Luc, on day 0, 2 and 4 post-infection. Body weight and temperature is monitored at days 3-10. In vivo imaging is performed each two days on anesthetized mice. At day 8, mice are killed and the safety of the treatment is investigated by a complete toxicopathological evaluation of treated mice (histologic analysis of lungs with sections of each lobe, turbinates, heart, spleen, liver, kidneys).
At day 7 pi, a time corresponding to the end of the infection in mice, the animals were sacrificed and the lungs were collected in order to perform a histological analysis. […]

[9] = circular dichroism; details: 10 mM phosphate; pH 7.5; 25 °C; 50 uM
[10] = tested on: RSV; details: Lambert et al., 1996; read-out: EC50 reported previously; cited from earlier work

Cc1cn2nc([C@@H]3CCCCN3C(=O)c3cc(Cl)ccc3NS(C)(=O)=O)cc2nc1N1CC[C@H](N)C1 [GS-5806]
EC50 [1]: 0.4 nM

CC[C@H](C)[C@@H]1NC(=O)[C@H](Cc2ccccc2)NC(=O)[C@@](C)(NC(=O)[C@H](CC(C)C)NC(=O)[C@H](CO)NC(=O)[C@H](CCC(N)=O)NC(=O)[C@H](CCC(=O)O)NC(C)=O)CCCC=CCCC[C@@](C)(C(=O)N[C@@H](CO)C(=O)N[C@@H](CC(=O)O)C(=O)N[C@@H](CCC(=O)O)C(=O)N[C@@H](CC(C)C)C(=O)N[C@@H](CC(C)C)C(=O)N[C@@H](Cc2c[nH]cn2)C(=O)N[C@@H](CC(N)=O)C(=O)N[C@H](C(N)=O)C(C)C)NC(=O)[C@H](CCCNC(=N)N)NC1=O [Peptide 3a, EQSL X504 FIR X508 SDELLHNV, reference compound] (Ac-EQSL[S5]FIR[S5]SDELLHNV-NH2; staple 5-9)
% helicity [2]: 33.9%
EC50 ([3]; HEp-2 cells, 0.2 MOI RSV-mCherry, 48 h): > 25 µM
inhibitory activity in HEp-2 cells ([3]; RSV-mCherry): inactive
block of the increase of FP / activity in the biochemical 5HB assay [4]: reasonable activity

CC[C@H](C)[C@H](NC(=O)[C@H](Cc1ccccc1)NC(=O)[C@]1(C)CCCC=CCCC[C@](C)(NC(=O)[C@@H](NC(=O)[C@H](CCCCN)NC(=O)[C@H](CCC(=O)O)NC(C)=O)[C@@H](C)CC)C(=O)N[C@@H](CCC(N)=O)C(=O)N[C@@H](CO)C(=O)N[C@@H](CC(C)C)C(=O)N1)C(=O)N[C@@H](CCCNC(=N)N)C(=O)N[C@]1(C)CCCCCCC=CCCC[C@@](C)(C(=O)N[C@H](C(N)=O)C(C)C)NC(=O)[C@H](Cc2c[nH]cn2)NC(=O)[C@H](CC(C)C)NC(=O)[C@H](CC(C)C)NC(=O)[C@H](CCC(=O)O)NC(=O)[C@H](CC(=O)O)NC(=O)[C@H](CO)NC1=O [Peptide 4bf, EKI X500 QSL X504 FIR 8508 SDELLH X515V, reference compound] (Ac-EKI[S5]QSL[S5]FIR[R8]SDELLH[S5]V-NH2; staple 4-8, 12-19 (inferred))
% helicity [2]: >100%
inhibitory activity in cellular viral fusion assay [5]: inactive

CC[C@H](C)[C@@H]1NC(=O)[C@H](Cc2ccccc2)NC(=O)[C@@](C)(NC(=O)[C@H](CC(C)C)NC(=O)[C@H](CO)NC(=O)[C@]2(C)CCCC=CCCC[C@@](C)(NC(=O)[C@H](CCC(=O)O)NC(C)=O)C(=O)N[C@@H]([C@@H](C)CC)C(=O)N[C@@H](CC(N)=O)C(=O)N2)CCCC=CCCC[C@@](C)(C(=O)N[C@@H](CO)C(=O)N[C@@H](CC(=O)O)C(=O)N[C@@H](CCC(=O)O)C(=O)N[C@@H](CC(C)C)C(=O)N[C@@H](CC(C)C)C(=O)N[C@@H](Cc2c[nH]cn2)C(=O)N[C@@H](CC(N)=O)C(=O)N[C@H](C(N)=O)C(C)C)NC(=O)[C@H](CCCNC(=N)N)NC1=O [Peptide 4ca] (Ac-E[R5]IN[S5]SL[S5]FIR[S5]SDELLHNV-NH2; staple 2-5, 8-12)
half-life at 2.9 µM [6]: 180 h
half-life at 2.9 µM [7]: 38 h
% helicity [2]: >100%
histological changes in the lung parenchyma, mock versus peptide inoculated animals (toxicity) [8]: No histological changes were noticed
interstitial pneumonia after infection by RSV, lung histology [8]: no interstitial pneumonia was observed

CC[C@H](C)[C@H](NC(=O)[C@H](CCCCN)NC(=O)[C@H](CCC(=O)O)NC(C)=O)C(=O)N[C@@H](CC(N)=O)C(=O)N[C@@H](CCC(N)=O)C(=O)N[C@@H](CO)C(=O)N[C@@H](CC(C)C)C(=O)N[C@]1(C)CCCCCCC=CCCC[C@@](C)(C(=O)N[C@@H](CC(C)C)C(=O)N[C@@H](CC(C)C)C(=O)N[C@@H](Cc2c[nH]cn2)C(=O)N[C@@H](CC(N)=O)C(=O)N[C@H](C(N)=O)C(C)C)NC(=O)[C@H](CC(=O)O)NC(=O)[C@H](CO)NC(=O)[C@H](CCCCN)NC(=O)[C@H](CCCNC(=N)N)NC(=O)[C@H]([C@@H](C)CC)NC(=O)[C@H](Cc2ccccc2)NC1=O [Peptide 4e, EKINQSL 8504 FIRKSD X511 LLHNV, reference compound] (Ac-EKINQSL[R8]FIRKSD[S5]LLHNV-NH2; staple 8-15)
helicity [9]: 23.3%
% helicity [2]: 23.3%
block of the increase of FP / activity in the biochemical 5HB assay [4]: reasonable activity

Ac-YDPLVFPSDEFDASISQVNEKINQSLAFIRKSDEL-NH2 (N-terminus and C-terminus assumed) [Peptide T108]
EC50 [10]: 1480 nM
